In ChEMBL document CHEMBL1155765, “Haterumaimides F-I, four new cytotoxic diterpene alkaloids from an ascidian Lissoclinum species” (J Nat Prod, 2001):

Key:
[1] = Toxicity against Sea urchin fertilized eggs assessed as inhibition of cell division at 5 ppm; parameters: species or system Egg; conditions: echinoidea
P388 = assay: Cytotoxicity against mouse P388 cells; assay type: functional, cell-based

CC1(C)C[C@H](Cl)C[C@]2(C)[C@H]3C[C@@H]([C@H]4CC(=O)NC4=O)O[C@@]3(C)CC(=O)[C@@H]12 [HATERUMAIMIDE I]
inhibition at 5 ppm [1]: 80% | IC50 (P388): > 10 µg/mL
